Results on two compounds are retold here after patent US20180280337A1, “NUTRITIONAL COMPOSITIONS COMPRISING SN-1(3) MONOACYLGLYCEROLS FOR USE IN THE TREATMENT OF GROWTH DELAY IN INFANTS OR CHILDREN” (NESTEC S.A., priority 2014, published 2018).

Data set [1] can be described thus: Lipid maldigestion or malabsorption rat model (XENICAL-induced): EPA level in red blood cells and tissue after feeding EPA glycerides or fish oil. Format: in vivo. The following applies: for level of EPA incorporated in red blood cells: rats given XENICAL, day 7 data (FIG. 3). The procedure: The concept was tested in a lipid maldigestion or malabsorption rat model. The maldigestion or malabsorption condition was obtained using XENICAL® (ORLISTAT, tetrahydrolipstatin), a pancreatic and gastric lipases inhibitor. Rats were fed during 21 days with long-chain polyunsaturated fatty acid (LC-PUFA) supplements containing mainly eicosapentaenoic (EPA) acid. Fish oil was used as a source of triacylglycerols, and different EPA glycerides were evaluated: Vanillin acetal of 2-EPA (from Stepan Lipid Nutrition); 1,3 Diacetyl-2 EPA (from Stepan Lipid Nutrition) and Sn-1(3)-MAG-EPA (purchased from Cognis GmbH, Germany). XENICAL® (ORLISTAT) was given at a level sufficient to decrease lipid absorption by 40%. A group receiving fish oil without XENICAL® (ORLISTAT) was used as a positive control. At different time intervals (D3, D7, […]), the fatty acid profiles of red blood cells and plasma lipids were determined. At the end of the experiment, the fatty acid profiles of different tissues were determined. The main objective was to follow the level of EPA in red blood cells and plasma lipids. The main comparison evaluated was the difference in EPA level between the group receiving EPA glycerides such as EPA-containing sn-1(3) MAG, in combination with XENICAL® (ORLISTAT) and the positive control group […].

The nature of data set [2]: Clinical study comparing sn-1(3) MAG and fish oil (TAG) in delivering EPA under lipid maldigestion induced by XENICAL. In kind it is in vivo, humans. The following applies: for chronic effect: accretion of EPA in erythrocytes as percentage of total fatty acids: compared with fish oil + XENICAL, p=0.0001 (FIG. 6). The procedure:
This clinical study compared the efficacy of sn-1(3) MAG and fish oil (TAG) in delivering EPA in humans under lipid maldigestion conditions induced by XENICAL® (ORLISTAT). The comparison was tested in volunteers treated with XENICAL® to induce lipid maldigestion or not treated with XENICAL® (ORLISTAT). The primary objective was to assess accretion of EPA in erythrocytes over 21 days when consumed as fish oil (TAG) or sn-1(3) MAG. The secondary objectives were to assess accretion of EPA in plasma over 21 days and also to assess the pharmacokinetics of EPA after an acute dose either in the form of sn-1(3) MAG or TAG (AUC in chylomicrons over 10 hours postprandial). See FIG. 4 that describes the clinical study timeline.

As for `CCCCCCCCCCC[C@@H](C[C@@H]1OC(=O)[C@H]1CCCCCC)OC(=O)[C@H](CC(C)C)NC=O` [XENICAL, tetrahydrolipstatin, reference compound], the “effect of XENICAL on EPA incorporation in red blood cells” value in data set [1] (fish oil + XENICAL compared with fish oil without XENICAL, day 7) was “decreases EPA incorporation in red blood cells”.

Consider `CC/C=C\C/C=C\C/C=C\C/C=C\C/C=C\CCCC(=O)OCC(O)CO` (stereo not drawn) [sn-1(3) MAG, sn-1(3)-monoeicosapentaenoylglycerol], for which the “incorporation of LC-PUFAs in tissue” value in data set [1] (conditions of lipid maldigestion or malabsorption (XENICAL), comparison of groups A, B and C) is on record as “improved”. Further, the “level of EPA incorporated in red blood cells” value in data set [1] (compared with fish oil group without XENICAL) is on record as “even higher than the fish oil group”; in data set [1] (fed 21 days, compared with fish oil + XENICAL, all P values lower than 0.05, listed as sn-1(3) MAG that contained EPA) it was “statistically higher”; in data set [1] (fed 21 days, compared with fish oil + XENICAL, all P values lower than 0.05, listed as sn-1(3)MAGs), “significantly higher”. The “chronic effect: accretion of EPA in erythrocytes as percentage of total fatty acids” value in data set [2] (after 21 days, with XENICAL) is “statistically significant”; in data set [2] (after 21 days, with XENICAL, listed as sn-1(3)MAGs), “significantly higher”. For the same compound, the “chronic effect: accretion of EPA in plasma as percentage of total fatty acids” value in data set [2] (after 21 days, with XENICAL, relative to fish oil + XENICAL, p=0.0003 (FIG. 7)) is reported as “statistically significant”. Further, the “carrier for EPA (overall conclusion of the clinical trial)” value in data set [2] (human subjects treated with XENICAL, compared with fish oil (TAG)) is on record as “better carrier for EPA than fish oil (TAG)”.
